In patent US20190053492A1, “SUBSTITUTED PYRIDINE COMPOUNDS AS PESTICIDES” (Bayer CropScience Aktiengesellschaft, priority 2016, published 2019):
Where two headings read alike, the source gives them in different places.

Legend:
Ctenocephalides felis = Ctenocephalides felis oral test; type: in vivo; settings: application rate 100 ppm in citrated cattle blood, after 2 days, adult cat fleas; for pest or weed control at 100 ppm: Ctenocephalides felis, po, 48 h, read-out: efficacy (kill in %)
Method in brief: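 About 20 unfed adult cat fleas fed through a parafilm membrane on citrated cattle blood dosed with compound from a DMSO formulation. Percent kill was scored after 2 days.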

Phaedon cochleariae = Phaedon cochleariae spray test; type: in vivo; settings: after 7 days, Chinese cabbage leaf discs; for pest or weed control at 100 g/ha / pest or weed control at 500 g/ha: Phaedon cochleariae, foliar, 168 h, read-out: efficacy (beetle larvae killed)
Method in brief: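 Chinese cabbage leaf discs sprayed with compound in acetone/DMF and emulsifier-containing water, then infested with mustard beetle larvae once dry. Efficacy in % scored after 7 days (100% = all larvae killed, 0% = none).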

Spodoptera frugiperda = Spodoptera frugiperda spray test; type: in vivo; settings: after 7 days, maize leaf discs; for pest or weed control at 100 g/ha / pest or weed control at 500 g/ha: Spodoptera frugiperda, foliar, 168 h, read-out: efficacy (caterpillars killed)
Method in brief: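 Maize leaf discs were sprayed with compound formulated in acetone/DMF and emulsifier-containing water, dried, then infested with Spodoptera frugiperda caterpillars. Percent kill was scored after 7 days, from 100% (all dead) to 0% (none dead).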

[1] = log P by HPLC on reversed-phase column (C 18), EEC Directive 79/831 Annex V.A8; type: physicochemical; settings: 55° C.; for LOGP_HCOOH: log P (HCOOH); for chromatographic logP: reversed-phase HPLC column (C 18)
Experimental: Temperature: 55° C. […] Called log P (HCOOH) in the table. […] Called log P (neutral) in the table.

Lucilia cuprina = Lucilia cuprina test; type: in vivo; settings: application rate 100 ppm, after 2 days, L1 larvae
Experimental: Lucilia cuprina Test Solvent: dimethyl sulphoxide To produce a suitable active ingredient formulation, 10 mg of active ingredient are mixed with 0.5 ml of dimethyl sulphoxide, and the concentrate is diluted with water to the desired concentration. About 20 L1 larvae of the Australian sheep blowfly (Lucilia cuprina) are transferred into a test vessel containing minced horsemeat and the active ingredient formulation of the desired concentration. After 2 days, the kill in % is determined. 100% means that all the larvae have been killed; 0% means that no larvae have been killed.

[2] = acidic range at pH 2.7, 0.1% aqueous formic acid and acetonitrile, HPLC on reversed-phase column (C 18)
[3] = log P, neutral range, HPLC on reversed-phase column (C 18)
[4] = pH 2.7, LC-MS acidic range, pH 2.7, 0.1% formic acid/acetonitrile, read-out: log P (acidic) / log P (HCOOH)
[5] = pH 7.8, LC-MS neutral range, pH 7.8, ammonium hydrogencarbonate/acetonitrile, read-out: log P (neutral)
[6] = acidic range pH 2.7, 0.1% aqueous formic acid and acetonitrile, reversed-phase column (C 18)

Row | LOGP_HCOOH [1, 2] | LOGP_NEUTRAL [1, 3] | chromatographic logP [1, 4] | chromatographic logP [1, 5] | LOGP_HCOOH [1, 6] | LOGP_NEUTRAL ([1]; log P (neutral), HPLC reversed-phase column (C 18)) | Structure (SMILES) | pest or weed control at 100 ppm (Ctenocephalides felis) [%] | pest or weed control at 100 g/ha (Phaedon cochleariae; application rate 100 g/ha) [%] | pest or weed control at 500 g/ha (Phaedon cochleariae; application rate 500 g/ha) [%] | pest or weed control at 100 g/ha (Spodoptera frugiperda; application rate 100 g/ha) [%] | pest or weed control at 500 g/ha (Spodoptera frugiperda; application rate 500 g/ha) [%] | efficacy (kill in %) (Lucilia cuprina) [%] | efficacy (kill in %) (Ctenocephalides felis) [%] | efficacy (beetle larvae killed) (Phaedon cochleariae; application rate 100 g/ha) [%] | efficacy (beetle larvae killed) (Phaedon cochleariae; application rate 500 g/ha) [%] | efficacy (caterpillars killed) (Spodoptera frugiperda; application rate 100 g/ha) [%] | efficacy (caterpillars killed) (Spodoptera frugiperda; application rate 500 g/ha) [%]
1 | 4.25 | 4.14 | 4.25 | 4.14 | – | – | N#Cc1ccc(CNC(=O)c2cc(-c3ccc(C(F)(F)C(F)(F)F)c(F)c3)cc(NC(=O)C3CC3)n2)cc1 [Example I-149, N-(4-Cyanobenzyl)-6-[(cyclopropylcarbonyl)amino]-4-[3-fluoro-4-(pentafluoroethyl)phenyl]pyridine-2-carboxamide] | 100 | 100 | 100 | 100 | 100 | 100 | – | – | – | – | –
2 | – | – | – | – | 4.56 | 4.49 | CC(NC(=O)c1cc(-c2ccc(C(F)(F)C(F)(F)F)c(F)c2)cc(NC(=O)C2CC2)n1)c1ccc(C#N)cc1 (centres unmarked) [Example I-247] | – | – | – | – | – | 100 | 100 | 100 | 100 | 100 | 100
3 | – | – | – | – | 3.73 | – | N#Cc1ccc(CNC(=O)c2cc(-c3ccc(C(F)(F)F)cc3)cc(NC(=O)C3CC3)n2)cc1 [Example I-005] | – | – | – | – | – | 100 | 100 | 100 | 100 | 100 | 100
4 | – | 4.15 | – | – | 4.31 | – | CC(C)C(=O)Nc1cc(-c2ccc(OC(F)(F)F)cc2)cc(C(=O)NCc2c(F)cc(C#N)cc2F)n1 [Example I-070] | – | – | – | – | – | 100 | 98 | – | 100 | – | 83
5 | 3.07 | 2.95 | – | – | – | – | O=C(NC1COC1)c1cc(-c2ccc(OC(F)(F)F)cc2)cc(NC(=O)C2CC2)n1 [Example I-117] | – | – | – | – | – | 95 | 100 | – | 100 | 100 | 100
6 | – | 3.76 | 3.9 | 3.76 | 3.90 | – | N#Cc1ccc(CNC(=O)c2cc(-c3ccc(OC(F)(F)F)cc3)cc(NC(=O)C3CC3)n2)cc1 [Example I-044, N-(4-Cyanobenzyl)-6-[(cyclopropylcarbonyl)amino]-4-[4-(trifluoromethoxy)phenyl]pyridine-2-carboxamide] | 100 | 100 | 100 | 100 | 100 | 100 | – | – | – | – | –
7 | 3.81 | – | 3.81 | – | – | – | N#Cc1ccc(CNC(=O)c2cc(-c3ccc(SC(F)(F)C(F)F)cc3)cc(NC(=O)C3CC3)n2)cc1 [Example I-178, N-(4-Cyanobenzyl)-6-[(cyclopropylcarbonyl)amino]-4-{4-[(1,1,2,2-tetrafluoroethyl)sulphanyl]phenyl}pyridine-2-carboxamide] | 100 | 100 | 100 | 100 | 100 | 100 | – | – | – | – | –
8 | – | – | – | – | 3.94 | – | CC(C#N)NC(=O)c1cc(-c2ccc(C(F)(F)C(F)(F)F)c(F)c2)cc(NC(=O)C2CC2)n1 (centres unmarked) [Example I-245] | – | – | – | – | – | 80 | 100 | 100 | 100 | 100 | 100
9 | 3.42 | 3.40 | – | – | – | – | CC(F)(F)c1ccc(-c2cc(NC(=O)C3CC3)nc(C(=O)NCc3ccc(C#N)cc3)c2)cc1 [Example I-192] | – | – | – | – | – | 90 | 100 | 100 | 100 | 100 | 100
